According to the NIST ThermoML archive (doi:10.1016/j.jct.2019.02.015):

Key:
[1] = 101.33 kPa, Liquid; for speed of sound: Single path-length method; for mass density: Vibrating tube method
[2] = refractive index (Na D-line) (dimensionless); conditions: 101.33 kPa, Liquid, Standard Abbe refractometry
[3] = wn = mass fraction of the nth substance listed; conditions: 298.15 K, 100 kPa, Liquid; for viscosity: Falling or rolling sphere viscometry; for speed of sound: Frequency=3 MHz, Single path-length method; for mass density: Vibrating tube method
[4] = refractive index (Na D-line) (dimensionless); wn = mass fraction of the nth substance listed; conditions: 298.15 K, 100 kPa, Liquid, Standard Abbe refractometry

CCCCCCCC(=O)[O-].CCCCCCCC[NH+](CCCCCCCC)CCCCCCCC [trioctylammonium octanoate]
viscosity [mPa·s], [1]
Conditions	Cone and plate viscometry	Falling or rolling sphere viscometry
293.15 K	–	25.02
298.15 K	25.07	20.3
303.15 K	–	16.63
308.15 K	–	13.85
313.15 K	–	11.6
318.15 K	–	9.84
323.15 K	–	8.38
328.15 K	–	7.26
333.15 K	–	6.33
338.15 K	–	5.54
343.15 K	–	4.92

Conditions	mass density, [1] [kg/m3]	refractive index, [2]	speed of sound, [1] [m/s]
293.15 K	849.68	1.4505	1393.1
298.15 K	846.22	1.4484	1375.3
303.15 K	842.77	1.4464	1357.6
308.15 K	839.31	1.4447	1340.1
313.15 K	835.85	1.4426	1322.8
318.15 K	832.38	1.4406	1305.7
323.15 K	828.91	1.4389	1288.8
328.15 K	825.44	1.4369	1272
333.15 K	821.95	1.4348	1255.5
338.15 K	818.47	1.4329	1239.2
343.15 K	815.03	1.4309	1223.7

CCCCCC(=O)[O-].CCCCCCCC[NH+](CCCCCCCC)CCCCCCCC [trioctylammonium hexanoate] + O
Conditions	mass density, [3] [kg/m3]	refractive index, [4]	speed of sound, [3] [m/s]	viscosity, [3] [mPa·s]
w2 = 0.00078	844.54	1.4469	1366.2	16.72
w2 = 0.001285	844.88	–	1366.9	15.89
w2 = 0.001301	–	1.4465	–	–
w2 = 0.002315	845.44	–	1367.8	14.49
w2 = 0.002627	–	1.4458	–	–
w2 = 0.003049	–	1.4455	–	–
w2 = 0.003128	845.81	–	1368.8	13.68

CCCCCC(=O)[O-].CCCCCC[NH+](CCCCCC)CCCCCC [trihexylammonium hexanoate]
viscosity [mPa·s], [1]
Conditions	Cone and plate viscometry	Falling or rolling sphere viscometry
293.15 K	–	13.86
298.15 K	12.53	11.44
303.15 K	–	9.55
308.15 K	–	8.05
313.15 K	–	6.86
318.15 K	–	5.9
323.15 K	–	5.11
328.15 K	–	4.48
333.15 K	–	3.95
338.15 K	–	3.5
343.15 K	–	3.12

Conditions	mass density, [1] [kg/m3]	refractive index, [2]	speed of sound, [1] [m/s]
293.15 K	849.82	1.4432	1353.3
298.15 K	846.21	1.4412	1335.7
303.15 K	842.59	1.4395	1317.8
308.15 K	838.96	1.4375	1300.1
313.15 K	835.33	1.4355	1282.2
318.15 K	831.69	1.4336	1264.9
323.15 K	828.04	1.4315	1247.7
328.15 K	824.38	1.4297	1230.6
333.15 K	820.72	1.4278	1213.7
338.15 K	817.03	1.4258	1196.9
343.15 K	813.33	1.4238	1180.3

CCCCCC(=O)[O-].CCCCCCCC[NH+](CCCCCCCC)CCCCCCCC [trioctylammonium hexanoate]
viscosity [mPa·s], [1]
Conditions	Cone and plate viscometry	Falling or rolling sphere viscometry
293.15 K	–	20.58
298.15 K	20.59	16.72
303.15 K	–	13.76
308.15 K	–	11.47
313.15 K	–	9.64
318.15 K	–	8.19
323.15 K	–	7.04
328.15 K	–	6.09
333.15 K	–	5.32
338.15 K	–	4.67
343.15 K	–	4.14

Conditions	mass density, [1] [kg/m3]	refractive index, [2]	speed of sound, [1] [m/s]
293.15 K	848.02	1.4489	1384
298.15 K	844.54	1.4469	1366.2
303.15 K	841.06	1.4451	1348.5
308.15 K	837.58	1.4432	1331
313.15 K	834.1	1.4413	1313.8
318.15 K	830.61	1.4394	1296.6
323.15 K	827.12	1.4375	1279.7
328.15 K	823.62	1.4353	1262.9
333.15 K	820.12	1.4336	1246.4
338.15 K	816.62	1.4316	1230.1
343.15 K	813.12	1.4294	1214.5

CCCC(=O)[O-].CCCCCC[NH+](CCCCCC)CCCCCC [trihexylammonium butanoate]
viscosity [mPa·s], [1]
Conditions	Cone and plate viscometry	Falling or rolling sphere viscometry
293.15 K	–	13.26
298.15 K	11.52	10.91
303.15 K	–	9.09
308.15 K	–	7.66
313.15 K	–	6.52
318.15 K	–	5.6
323.15 K	–	4.85
328.15 K	–	4.24
333.15 K	–	3.73
338.15 K	–	3.3
343.15 K	–	2.94

Conditions	mass density, [1] [kg/m3]	refractive index, [2]	speed of sound, [1] [m/s]
293.15 K	848.02	1.4419	1345
298.15 K	844.32	1.44	1326.7
303.15 K	840.63	1.438	1308.6
308.15 K	836.93	1.4361	1290.7
313.15 K	833.22	1.4342	1273
318.15 K	829.5	1.4322	1255.5
323.15 K	825.78	1.4302	1238.1
328.15 K	822.04	1.4282	1221
333.15 K	818.3	1.4262	1204
338.15 K	814.54	1.4241	1187.3
343.15 K	810.76	1.4221	1171.3

CCCC(=O)[O-].CCCCCCCC[NH+](CCCCCCCC)CCCCCCCC [trioctylammonium butanoate]
viscosity [mPa·s], [1]
Conditions	Cone and plate viscometry	Falling or rolling sphere viscometry
293.15 K	–	17.82
298.15 K	16.03	14.55
303.15 K	–	12.06
308.15 K	–	10.09
313.15 K	–	8.55
318.15 K	–	7.3
323.15 K	–	6.3
328.15 K	–	5.49
333.15 K	–	4.82
338.15 K	–	4.28
343.15 K	–	3.82

Conditions	mass density, [1] [kg/m3]	refractive index, [2]	speed of sound, [1] [m/s]
293.15 K	845.71	1.4474	1377.6
298.15 K	842.19	1.4456	1359.6
303.15 K	838.68	1.4437	1341.8
308.15 K	835.16	1.4417	1324.2
313.15 K	831.64	1.4395	1306.8
318.15 K	828.12	1.4376	1289.6
323.15 K	824.59	1.4356	1272.5
328.15 K	821.05	1.4339	1255.6
333.15 K	817.51	1.4319	1239
338.15 K	813.96	1.43	1222.5
343.15 K	810.41	1.428	1206.8

CCCCCCCC(=O)[O-].CCCCCC[NH+](CCCCCC)CCCCCC [trihexylammonium octanoate]
viscosity [mPa·s], [1]
Conditions	Cone and plate viscometry	Falling or rolling sphere viscometry
293.15 K	–	17.02
298.15 K	15.9	13.93
303.15 K	–	11.55
308.15 K	–	9.68
313.15 K	–	8.21
318.15 K	–	7.02
323.15 K	–	6.06
328.15 K	–	5.27
333.15 K	–	4.62
338.15 K	–	4.1
343.15 K	–	3.65

Conditions	mass density, [1] [kg/m3]	refractive index, [2]	speed of sound, [1] [m/s]
293.15 K	851.2	1.4459	1365.7
298.15 K	847.63	1.4441	1347.7
303.15 K	844.06	1.4419	1329.8
308.15 K	840.48	1.4399	1312.2
313.15 K	836.9	1.4381	1294.7
318.15 K	833.31	1.4359	1277.4
323.15 K	829.72	1.4341	1260.2
328.15 K	826.11	1.4322	1243.2
333.15 K	822.5	1.4299	1226.5
338.15 K	818.87	1.4278	1209.9
343.15 K	815.25	1.4258	1194
